Source: article PMC10624635, “Design of allosteric sites into rotary motor V1-ATPase by restoring lost function of pseudo-active sites” (Nature Chemistry, 2023)

Target: T1, wild-type V1-ATPase (Enterococcus hirae, UniProt Q08636+Q08637)
T1 construct: gene ntpA
Conditions: MgCl2; pH 6.5, 25 °C; ATP-regenerating system

Nc1ncnc2c1ncn2[C@@H]1O[C@H](COP(=O)(O)OP(=O)(O)OP(=O)(O)O)[C@@H](O)[C@H]1O [ATP]
coupled ATPase assay (NADH, pyruvate kinase / lactate dehydrogenase): We also measured ATPase activity of the wild-type and designed V1
